This note sets out measurements from US20250312499A1, “KISSPEPTIN RECEPTOR (KISS1R) TARGETED THERAPEUTICS AND USES THEREOF” (priority 2024, published 2025).

Usually Ki stands for a measure of affinity in units of concentration, obtained from inhibition or displacement.

Numbered stars: 1 amine (or outer) side, 2 acyl side, 3 side chain; on linkers, the order of the positions; unused ones are H or OH. Square brackets hold non-standard residues; d marks the D form. Peptide text beside a SMILES is read from it. * marks the point of attachment. DOTA = O=C(O)CN1CCN(CC(=O)O)CCN(CC(=O)*)CCN(CC(=O)O)CC1; Gly(N-(3-F-4-Me-benzyl)) = Cc1ccc(CNCC(=O)*)cc1F; Gly(Nα-4-MeO-benzyl) = COc1ccc(CNCC(=O)*)cc1; Phe(4-CN) = N#Cc1ccc(C[C@H](N)C(=O)O)cc1; X1 = O=C(CN1CCC(N[*:1])CC1)[*:2]; 4Amb = NCc1ccc(C(=O)O)cc1; Api = NC1(C(=O)O)CCNCC1; Ahx = NCCCCCC(=O)O; azaGly = NNC(=O)O

In this test the target is human kisspeptin receptor (Homo sapiens (Human), UniProt Q969F8). Kind of test: Human KISS1R binding assay (membrane competition binding). Particulars: 90 min at room temperature; competition with 0.2 nM [125I]-metastin (45-54); Flp-In T-Rex 293 kisspeptin membranes; metal complexes nonradioactive Ga, In, Lu; read-out: hKiSSR Binding Ki (90 min). The essentials: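 Radioligand competition: 0.2 nM [125I]-metastin (45-54) displaced by test ligand (usually 0–10,000 nM) over 90 min at room temperature, pH 7.4 buffer with 0.1% BSA. Receptor source is crude membrane (5–10 μg) from tetracycline-induced Flp-In T-Rex 293 cells. Bound label filtered and counted; Ki from non-linear regression.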
Chain of human kisspeptin receptor (Q969F8 whole entry): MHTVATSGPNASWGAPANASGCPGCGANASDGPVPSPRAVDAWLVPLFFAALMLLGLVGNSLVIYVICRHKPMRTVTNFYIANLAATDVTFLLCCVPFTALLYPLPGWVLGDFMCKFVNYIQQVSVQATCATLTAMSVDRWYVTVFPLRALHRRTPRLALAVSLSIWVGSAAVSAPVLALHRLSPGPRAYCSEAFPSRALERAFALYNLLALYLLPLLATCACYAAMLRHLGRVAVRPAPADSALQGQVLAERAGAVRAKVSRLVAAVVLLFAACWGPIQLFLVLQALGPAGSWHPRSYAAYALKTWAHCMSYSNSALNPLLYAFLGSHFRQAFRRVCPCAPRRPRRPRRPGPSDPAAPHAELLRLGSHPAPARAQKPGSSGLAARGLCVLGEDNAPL
As to `COc1ccc(CNCC(=O)N2CCC(NC(=O)[C@H](CC(C)C)NC(=O)NNC(=O)[C@H](Cc3ccccc3)NC(=O)[C@@H](NC(=O)[C@H](CC(N)=O)NC(=O)[C@H](CCC(=O)O)NC(=O)CCCCCNC(=O)CN3CCN(CC(=O)O)CCN(CC(=O)O)CCN(CC(=O)O)CC3)[C@@H](C)O)(C(=O)N[C@@H](Cc3ccccc3)C(N)=O)CC2)cc1` [Compound 236] ({DOTA-Ahx}-ENTF[azaGly]L[Api](Gly(Nα-4-MeO-benzyl))F-NH2), the Ki was under 10 nM.

Take `COc1ccc(CNCC(=O)N2CCC(NC(=O)[C@H](CC(C)C)NC(=O)NNC(=O)[C@H](Cc3ccccc3)NC(=O)[C@@H](NC(=O)[C@H](CC(N)=O)NC(=O)[C@H](CCC(=O)O)NC(=O)CN3CCN(CC(=O)O)CCN(CC(=O)O)CCN(CC(=O)O)CC3)[C@@H](C)O)(C(=O)N[C@@H](Cc3ccccc3)C(N)=O)CC2)cc1` [Compound 237] ({DOTA}-ENTF[azaGly]L[Api](Gly(Nα-4-MeO-benzyl))F-NH2): the Ki was under 10 nM.

As for `Cc1ccc(CNCC(=O)N2CCC(NC(=O)[C@H](CC(C)C)NC(=O)NNC(=O)[C@H](Cc3ccccc3)NC(=O)[C@@H](NC(=O)[C@H](CC(N)=O)NC(=O)[C@H](CCC(=O)O)NC(=O)CCCCCNC(=O)CN3CCN(CC(=O)O)CCN(CC(=O)O)CCN(CC(=O)O)CC3)[C@@H](C)O)(C(=O)N[C@@H](Cc3c[nH]c4ccccc34)C(N)=O)CC2)cc1F` [Compound 238] ({DOTA-Ahx}-ENTF[azaGly]L[Api](Gly(N-(3-F-4-Me-benzyl)))W-NH2), the Ki is under 10 nM.

Regarding `COc1ccc(CNCC(=O)N2CCC(NC(=O)[C@@H](CC(C)C)NC(=O)NNC(=O)[C@H](Cc3ccccc3)NC(=O)[C@@H](NC(=O)[C@H](CC(N)=O)NC(=O)[C@H](CCC(=O)O)NC(=O)CN3CCN(CC(=O)O)CCN(CC(=O)O)CCN(CC(=O)O)CC3)[C@@H](C)O)(C(=O)N[C@@H](Cc3ccccc3)C(N)=O)CC2)cc1` [Compound 239] ({DOTA}-ENTF[azaGly][dL][Api](Gly(Nα-4-MeO-benzyl))F-NH2), the Ki is over 100 nM.

Take `Cc1ccc(CNCC(=O)N2CCC(NC(=O)[C@H](CC(C)C)NC(=O)NNC(=O)[C@H](Cc3ccccc3)NC(=O)[C@@H](NC(=O)[C@H](CC(N)=O)NC(=O)c3ccc(CNC(=O)CN4CCN(CC(=O)O)CCN(CC(=O)O)CCN(CC(=O)O)CC4)cc3)[C@@H](C)O)(C(=O)N[C@@H](Cc3ccc(C#N)cc3)C(N)=O)CC2)cc1F` [Compound 240] ({DOTA-4Amb}-NTF[azaGly]L[Api](Gly(N-(3-F-4-Me-benzyl)))[Phe(4-CN)]-NH2): the inhibition constant Ki is under 10 nM.

Regarding `Cc1ccc(CNCC(=O)N2CCC(NC(=O)[C@H](CC(C)C)NC(=O)NNC(=O)[C@H](Cc3ccccc3)NC(=O)[C@@H](NC(=O)[C@H](CC(N)=O)NC(=O)[C@H](CCC(=O)O)NC(=O)c3ccc(CNC(=O)CN4CCN(CC(=O)O)CCN(CC(=O)O)CCN(CC(=O)O)CC4)cc3)[C@@H](C)O)(C(=O)N[C@@H](Cc3ccc(C#N)cc3)C(N)=O)CC2)cc1F` [Compound 241] ({DOTA-4Amb}-ENTF[azaGly]L[Api](Gly(N-(3-F-4-Me-benzyl)))[Phe(4-CN)]-NH2), the Ki was under 10 nM.

Consider `Cc1ccc(CNCC(=O)N2CCC(NC(=O)[C@H](CC(C)C)NC(=O)NNC(=O)[C@H](Cc3ccccc3)NC(=O)[C@@H](NC(=O)[C@H](CC(N)=O)NC(=O)[C@@H](CCC(=O)O)NC(=O)c3ccc(CNC(=O)CN4CCN(CC(=O)O)CCN(CC(=O)O)CCN(CC(=O)O)CC4)cc3)[C@@H](C)O)(C(=O)N[C@@H](Cc3ccc(C#N)cc3)C(N)=O)CC2)cc1F` [Compound 242] ({DOTA-4Amb}-[dE]NTF[azaGly]L[Api](Gly(N-(3-F-4-Me-benzyl)))[Phe(4-CN)]-NH2), for which the Ki was under 10 nM.

On to `Cc1ccc(CNCC(=O)N2CCC(NC(=O)[C@H](CC(C)C)NC(=O)NNC(=O)[C@H](Cc3ccccc3)NC(=O)CN3CCC(NC(=O)CN4CCN(CC(=O)O)CCN(CC(=O)O)CCN(CC(=O)O)CC4)CC3)(C(=O)N[C@@H](Cc3ccc(C#N)cc3)C(N)=O)CC2)cc1F` [Compound 244] ({DOTA}-[X1]F[azaGly]L[Api](Gly(N-(3-F-4-Me-benzyl)))[Phe(4-CN)]-NH2), for which the Ki was under 10 nM.
